This is an account of results in patent publication US20240351965A1, “Synthesis and Evaluation of Novel (4-Hydroxyphenyl) Substituted Carbocycles as Potent and Selective Estrogen Receptor Beta Agonists” (Marquette University, priority 2021, published 2024).

One series concerns the target T1, CYP2C9 (Homo sapiens, UniProt P11712).
T1 construct: purchased Promega (P450-Glo Screening Systems)
Kind of series: Cytochrome P450 inhibition (P450-Glo), CYP2C9. It is filed as in vitro ADME. To be noted: for IC50: tested up to 62.5 μM. The procedure: (§1) A screen of Cytochrome p450 inhibition was performed using the Promega P450-Glo™ Screening Systems. The Screening Systems' manual instructions were followed for CYP2C9, CYP2D6, or CYP3A4 enzymes with Luciferin-H, Luciferin-ME EGE or Luciferin-PPXE as substrates, respectively. The components of the kits, i.e., membrane enzymes, control enzymes, substrates and potassium phosphate buffer and or TRIS buffer were combined according to the System-manual's recommended final concentrations. Reactions were pre-incubated in white 96-well flat-bottom plates at 37° C. for 10 min before starting reactions with 2×NADPH regeneration buffer. The 96-well plates were incubated according to the recommended times in the linear range for each enzyme/substrate reaction. The reactions were stopped using 2× Luciferin Detection Reagent. After 20 minutes, the luciferase product was detected using a SpectraMax M5 Molecular Devices plate reader on the end-point luminescence setting. Positive control inhibitors for CYP2C9, CYP2D6, and CYP3A4 enzymes were assayed at a final concentration of 10 μM sulfaphenazole, 1 μM quinidine and 5 μM ketoconazole, respectively. Serial dilutions of 5a/b and (±)-11 were assayed at final concentrations of […], 7.812, 3.906, 1.953, 0.977, 0.488 μM. Inhibition data were analyzed using GraphPad Prism® 6 for Windows, ver. 6.07 (Jun. 12, 2015) software. Raw data were normalized against the control enzyme and untreated CYP enzyme means and then analyzed through non-linear regression using log (inhibitor) vs normalized dose-response curves to assess IC50s. Standard deviations were calculated from Best-fit values. Data were normalized to vehicle and positive controls (sulfaphenazole for CYP2C9, quinidine for CYP2D6, and ketoconazole for CYP3A4) and nonlinear square fits of the data were conducted using Prism 6 (GraphPad).

The target in the next series is T2, CYP2D6 (Homo sapiens, UniProt P10635).
T2 construct: purchased Promega (P450-Glo Screening Systems)
The series can be described thus: Cytochrome P450 inhibition (P450-Glo), CYP2D6. It is filed as in vitro ADME. The procedure:
as §1

For another series, the target named is T3, CYP3A4 (Homo sapiens, UniProt P08684).
T3 construct: purchased Promega (P450-Glo Screening Systems)
Kind of series: Cytochrome P450 inhibition (P450-Glo), CYP3A4. In kind it is in vitro ADME. The procedure:
as §1

The target in series [1] is T4, ERβ (Homo sapiens, UniProt Q92731). To be noted: cited from earlier work.
Target sequence in this assay (Q92731 whole entry): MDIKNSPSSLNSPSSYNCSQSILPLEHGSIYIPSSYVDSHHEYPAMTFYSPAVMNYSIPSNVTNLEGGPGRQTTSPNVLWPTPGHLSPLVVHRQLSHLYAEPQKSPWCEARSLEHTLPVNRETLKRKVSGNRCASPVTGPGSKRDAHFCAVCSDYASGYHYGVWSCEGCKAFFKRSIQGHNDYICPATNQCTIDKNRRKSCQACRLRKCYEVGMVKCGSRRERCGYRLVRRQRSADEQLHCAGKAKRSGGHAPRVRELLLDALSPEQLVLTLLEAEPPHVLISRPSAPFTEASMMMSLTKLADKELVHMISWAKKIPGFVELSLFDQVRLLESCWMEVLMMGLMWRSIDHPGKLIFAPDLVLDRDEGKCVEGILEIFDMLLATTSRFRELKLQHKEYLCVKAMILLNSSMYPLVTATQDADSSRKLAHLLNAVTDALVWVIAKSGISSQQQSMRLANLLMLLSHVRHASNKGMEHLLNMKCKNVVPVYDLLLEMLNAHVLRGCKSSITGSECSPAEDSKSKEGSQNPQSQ
For series [2], the target named is T4, ERβ. The series can be described thus: TR-FRET ligand binding displacement assay (LanthaScreen).
Target sequence in this assay (Q92731 264-498 limits assumed): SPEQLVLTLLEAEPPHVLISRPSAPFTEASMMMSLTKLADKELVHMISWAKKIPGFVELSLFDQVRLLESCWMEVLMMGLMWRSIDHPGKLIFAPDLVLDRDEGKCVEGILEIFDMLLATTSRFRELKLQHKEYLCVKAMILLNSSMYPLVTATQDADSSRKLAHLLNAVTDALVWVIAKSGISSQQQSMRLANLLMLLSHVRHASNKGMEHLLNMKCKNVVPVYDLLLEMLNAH
In series [3] the target is T4, ERβ. The series can be described thus: TR-FRET coactivator binding (recruitment) assay. In kind it is biochemical. Background: TR-FRET usually uses a lanthanide donor and a delayed reading to cut background.
Target sequence in this assay (Q92731 264-498 limits assumed): as above
Where [4] appears, read: human, probe Luciferin-ME EGE, read-out: CYP2D6 inhibition: not inhibited at concentrations up to (abstract).
[5] abbreviates: read-out: CYP2D6 inhibition: no inhibition up to.
Setting [6] is: human, probe Luciferin-PPXE, read-out: CYP3A4 inhibition: not inhibited at concentrations up to (abstract).
Where [7] appears, read: read-out: CYP3A4 inhibition: no inhibition up to.

Where two headings read alike, the source gives them in different places.

T1 sequence (P11712 whole entry): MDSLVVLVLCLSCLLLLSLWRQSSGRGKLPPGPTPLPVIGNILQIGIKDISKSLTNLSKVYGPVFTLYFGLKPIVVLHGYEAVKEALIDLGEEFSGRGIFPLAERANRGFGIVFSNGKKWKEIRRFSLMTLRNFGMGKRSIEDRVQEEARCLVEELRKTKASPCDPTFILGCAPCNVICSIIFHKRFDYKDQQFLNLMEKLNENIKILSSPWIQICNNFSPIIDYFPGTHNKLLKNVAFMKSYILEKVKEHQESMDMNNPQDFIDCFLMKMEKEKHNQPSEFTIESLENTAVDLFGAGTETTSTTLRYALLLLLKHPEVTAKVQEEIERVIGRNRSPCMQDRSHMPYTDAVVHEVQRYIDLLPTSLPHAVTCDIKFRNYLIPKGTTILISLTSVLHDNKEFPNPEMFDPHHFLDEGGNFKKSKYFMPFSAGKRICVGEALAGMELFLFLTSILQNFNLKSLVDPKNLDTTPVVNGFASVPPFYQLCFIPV
T2 sequence (P10635 whole entry): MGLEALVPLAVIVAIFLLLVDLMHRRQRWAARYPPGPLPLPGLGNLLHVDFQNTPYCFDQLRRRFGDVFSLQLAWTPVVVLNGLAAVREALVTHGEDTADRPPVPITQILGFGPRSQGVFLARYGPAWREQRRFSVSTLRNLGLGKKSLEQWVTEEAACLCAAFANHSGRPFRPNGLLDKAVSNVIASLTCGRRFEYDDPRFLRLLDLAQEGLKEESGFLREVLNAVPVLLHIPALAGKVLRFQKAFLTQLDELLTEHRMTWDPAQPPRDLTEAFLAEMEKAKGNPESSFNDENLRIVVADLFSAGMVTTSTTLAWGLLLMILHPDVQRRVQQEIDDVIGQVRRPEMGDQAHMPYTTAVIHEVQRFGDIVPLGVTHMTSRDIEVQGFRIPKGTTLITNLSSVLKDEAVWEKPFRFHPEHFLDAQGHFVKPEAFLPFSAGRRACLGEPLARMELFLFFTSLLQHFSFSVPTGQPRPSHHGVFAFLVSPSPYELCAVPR
T3 sequence (P08684 whole entry): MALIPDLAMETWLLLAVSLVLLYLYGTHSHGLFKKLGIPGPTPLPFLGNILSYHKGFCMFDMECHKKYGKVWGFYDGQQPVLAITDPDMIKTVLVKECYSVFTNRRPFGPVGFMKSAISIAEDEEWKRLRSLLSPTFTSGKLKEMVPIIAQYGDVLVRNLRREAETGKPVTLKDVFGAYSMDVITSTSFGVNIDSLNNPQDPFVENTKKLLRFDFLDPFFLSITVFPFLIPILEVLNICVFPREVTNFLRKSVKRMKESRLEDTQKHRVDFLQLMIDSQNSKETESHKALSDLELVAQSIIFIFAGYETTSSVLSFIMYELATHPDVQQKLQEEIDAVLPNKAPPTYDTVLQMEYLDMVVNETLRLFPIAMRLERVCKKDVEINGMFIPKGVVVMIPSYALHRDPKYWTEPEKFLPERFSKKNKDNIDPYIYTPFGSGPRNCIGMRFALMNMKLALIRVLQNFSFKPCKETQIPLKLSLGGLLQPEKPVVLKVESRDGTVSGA

With `Oc1ccc(C2CCC3(CC2)CC(O)C3)cc1` (racemic) [(±)-11, 7-(4-hydroxyphenyl)spiro[3.5]nonan-2-ol], on CYP2C9, the “CYP2C9 binding in enzyme kinetic inhibition assay” value is on record as “does not bind to any of these CYP450 enzymes with significant activity”. The IC50 at CYP2C9, on CYP2D6 (setting [4]), at CYP2D6 (setting [5]), at CYP3A4 (setting [6]) and on CYP3A4 (setting [7]) was greater than 62.5 µM throughout. The “CYP2D6 binding in enzyme kinetic inhibition assay” value at CYP2D6 is recorded as “does not bind to any of these CYP450 enzymes with significant activity”. At CYP3A4, the “CYP3A4 binding in enzyme kinetic inhibition assay” value is on record as “does not bind to any of these CYP450 enzymes with significant activity”.

With `OCC12CC3CC(C1)C(c1ccc(O)cc1)C(C3)C2` (stereo not shown) [5a/b, 4-(4-Hydroxyphenyl)tricyclo[3.3.1.1^3,7]decane-1-methanol], the IC50 against CYP2C9 is 10 ± 0.5 µM; at CYP2D6 (setting [4]), greater than 62.5 µM; at CYP2D6 (setting [5]) it was greater than 62.5 µM; at CYP3A4 (setting [6]), greater than 62.5 µM; at CYP3A4 (setting [7]), greater than 62.5 µM. Moreover, the “CYP2D6 binding in enzyme kinetic inhibition assay” value on CYP2D6 is given as “weak binding only to CYP2C9”. Further, the “CYP3A4 binding in enzyme kinetic inhibition assay” value at CYP3A4 is recorded as “weak binding only to CYP2C9”.

As a reminder, the EC50 is the concentration giving half of the maximal effect. On to `OCC1CCCC(c2ccc(O)cc2)CC1` (stereo not shown) [ISP163], for which the “ERβ selectivity (literature)” value on ERβ [1] was 318 fold. In addition, on ERβ [1] (read-out: EC50 (literature, ERβ agonist)), the EC50 was 0.033 ± 0.005 µM.

For `O=C1CC2(CCC(c3ccc(O)cc3)CC2)C1` [compound 10, 7-(4-Hydroxyphenyl)spiro[3.5]nonan-2-one], the IC50 on ERβ [2] was found to be 2.22 ± 2.66 µM; at ERβ [3] it was 1.64 ± 0.301 µM.
